Values of other authors in patent US20140363484A1, “FIBROUS BIO-DEGRADABLE POLYMERIC WAFERS SYSTEM FOR THE LOCAL DELIVERY OF THERAPEUTIC AGENTS IN COMBINATIONS” (Amrita Vishwa Vidyapeetham, priority 2012, published 2014).

Settings: under physiological conditions

Cn1nnc2c(C(N)=O)ncn2c1=O [temozolomide]
half-life: 1.8 h
